Data: patent US12310975B2, “Modulators of BCL6 proteolysis and associated methods of use” (Arvinas Operations, Inc., priority 2019, dated 2025)

Columns and labels:
BCL6 [1] = biological target: T1, BCL6 (Homo sapiens (Human), UniProt P41182); test: BCL6 TR-FRET assay (BCL6-Avitag-Biotin / BCoR-Cy5 peptide); assay type: binding; settings: class symbols A-D; read-out: IC50 (nM)***
Procedure: Protein Synthesis. BCL6 protein was expressed by transforming Invitrogen One Shot cells with GS63525 pET24a-His-SUMO-TEV-BCLm-Avitag plasmid following manufacturer's instructions. In addition, biotin at a final concentration of 50 μM, and IPTG at a final concentration of 1 mM was added to the culture and incubated at room temperature shaking overnight.
Assay buffer A: 50 mM HEPES pH 7.5, 125 mM NaCl, 0.01% TritonX.
Assay buffer B (made fresh): buffer A+1 mM Glutathione (or 0.5 mM DTT).
Assay buffer C (made fresh): buffer B+0.03% BSA.
Black Proxy plates, 96 well.
15 μl final reaction volumes (BCoR-Cy5 100 nM, SA-Eu 2 nM, BCL6-avitag 2 nM).
[…] BCL6-Avitag-Biotin stock: made fresh by adding 2 μl of BCL6-Avitag-Biotin to 31.5 ml Buffer C.
1 mM BCoR-Cy5 peptide (LifeTein) stock in Dimethylformamide (DMF).
300 nM BCoR-Cy5 working stock: made fresh by adding 4.5 μl of the 1 mM BCoR-Cy5 peptide stock to 15 ml Buffer B.
10 μM Eu-Streptavidin (Lance Eu-W1024 Streptavidin, PerkinElmer) stock solution.
6 nM Eu-Streptavidin working stock: made fresh by adding 9 μl Eu-Streptavidin stock solution to 15 ml Buffer A.
Compounds were diluted to 10 mM. Twenty microliters of DMSO was aliquoted to each well of the microtiter plates. From the 10 mM compound stock, 8.7 ul was aliquoted to the 20 ul DMSO and 3-fold serial dilutions (12 pt 3-0.01 uM tritration plate, 96 well, 100% DMSO) performed. Five ul from the titration plate wells was aliquoted to 45 ul Buff C (Intermediate dilution plates, 10% DMSO).
Spot 1.5 μl compound titrations to 384-well plates in duplicate, and spot 3.5 μl [8.5 nM] BCL6-bio protein to each well. The plate was mix briefly, centrifuged, and incubated for 30 minutes at room temperature.
Mix 14 mls of BCoR-Cy5 [300 nM] and 14 mls [6 nM] Eu-Streptavidin. Spot 10 μl BCoR-Cy5/SA-Eu (1:1) mix to each well. The plates were incubated for 2 hours and then read on an Envision plate reader.

BCL6 [2] = biological target: T1, BCL6; test: Immunofluorescence high content imaging of BCL6 degradation in T47D cells; assay type: cell-based; settings: for DC50: class symbols A-D, read-out: EC50 (nM)*; for Dmax: T47D, maximum, class symbols A-C
Outline: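 T47D, 3 d compound exposure, 11-pt 3-fold series, top 0.1 or 1 μM final. Fix 4% PFA, Triton permeabilize, anti-BCL6 primary overnight 4 °C, Alexa-488 secondary. High-content imaging 10×, 4 fields/well, top-hat smoothing.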

IC50 (BCL6 [1]) | DC50 (BCL6 [2]) | Dmax (BCL6 [2]) | Compound
< 10 nM | 10 to 50 nM | < 50% | CC(=O)COc1cc2cc(Nc3nc(N4CCN(C5CCN(CCCOc6ccc7c(c6)CN(C6CCC(=O)NC6=O)C7=O)C5)CC4)ncc3Cl)ccc2n(C)c1=O (stereo not drawn) [compound 158, 3-(5-(3-(3-(4-(5-chloro-4-((1-methyl-2-oxo-3-(2-oxopropoxy)-1,2-dihydroquinolin-6-yl)amino)pyrimidin-2-yl)piperazin-1-yl)pyrrolidin-1-yl)propoxy)-1-oxoisoindolin-2-yl)piperidine-2,6-dione]
10 to 50 nM | 10 to 50 nM | 50 to 70% | CC(=O)COc1cc2cc(Nc3nc(N4CCN(C5CCN(c6ccc7c(c6)C(=O)N(C6CCC(=O)NC6=O)C7=O)CC5)CC4)ncc3Cl)ccc2n(C)c1=O (stereo not drawn) [compound 160, 5-(4-(4-(5-chloro-4-((1-methyl-2-oxo-3-(2-oxopropoxy)-1,2-dihydroquinolin-6-yl)amino)pyrimidin-2-yl)piperazin-1-yl)piperidin-1-yl)-2-(2,6-dioxopiperidin-3-yl)isoindoline-1,3-dione]
10 to 50 nM | 10 to 50 nM | < 50% | CC(=O)COc1cc2cc(Nc3nc(N4CCN(C5CCCN(c6ccc7c(c6)C(=O)N(C6CCC(=O)NC6=O)C7=O)C5)CC4)ncc3Cl)ccc2n(C)c1=O (stereo not drawn) [compound 161, 5-(3-(4-(5-chloro-4-((1-methyl-2-oxo-3-(2-oxopropoxy)-1,2-dihydroquinolin-6-yl)amino)pyrimidin-2-yl)piperazin-1-yl)piperidin-1-yl)-2-(2,6-dioxopiperidin-3-yl)isoindoline-1,3-dione]
10 to 50 nM | 10 to 50 nM | < 50% | CC(=O)COc1cc2cc(Nc3nc(N4CCC(CCN5CCN(c6ccc7c(c6)C(=O)N(C6CCC(=O)NC6=O)C7=O)CC5)CC4)ncc3Cl)ccc2n(C)c1=O (stereo not drawn) [compound 162, 5-(4-(2-(1-(5-chloro-4-((1-methyl-2-oxo-3-(2-oxopropoxy)-1,2-dihydroquinolin-6-yl)amino)pyrimidin-2-yl)piperidin-4-yl)ethyl)piperazin-1-yl)-2-(2,6-dioxopiperidin-3-yl)isoindoline-1,3-dione]
10 to 50 nM | 10 to 50 nM | 50 to 70% | CC(=O)COc1cc2cc(Nc3nc(N4CCN(C(=O)C5CCN(c6ccc7c(c6)C(=O)N(C6CCC(=O)NC6=O)C7=O)CC5)CC4)ncc3Cl)ccc2n(C)c1=O (stereo not drawn) [compound 163, 5-(4-(4-(5-chloro-4-((1-methyl-2-oxo-3-(2-oxopropoxy)-1,2-dihydroquinolin-6-yl)amino)pyrimidin-2-yl)piperazine-1-carbonyl)piperidin-1-yl)-2-(2,6-dioxopiperidin-3-yl)isoindoline-1,3-dione]

The next lines start with the compound.

Compound | IC50 (BCL6 [1]) | DC50 (BCL6 [2]) | Dmax (BCL6 [2])
Cn1c(=O)n(CCC(C)(C)O)c2cc(Nc3nc(N4CCC(CN5CCN(c6ccc7c(c6)C(=O)N(C6CCC(=O)NC6=O)C7=O)CC5)CC4)ncc3Cl)ccc21 (stereo not drawn) [compound 149, 5-(4-((1-(5-chloro-4-((3-(3-hydroxy-3-methylbutyl)-1-methyl-2-oxo-2,3-dihydro-1H-benzo[d]imidazol-5-yl)amino)pyrimidin-2-yl)piperidin-4-yl)methyl)piperazin-1-yl)-2-(2,6-dioxopiperidin-3-yl)isoindoline-1,3-dione] | ≥ 100 nM | > 100 nM | 
Cn1c(=O)ccc2cc(Nc3nc(N4CCC(CN5CCN(c6ccc7c(c6)C(=O)N(C6CCC(=O)NC6=O)C7=O)CC5)CC4)ncc3Cl)ccc21 (stereo not drawn) [compound 150, 5-(4-((1-(5-chloro-4-((1-methyl-2-oxo-1,2-dihydroquinolin-6-yl)amino)pyrimidin-2-yl)piperidin-4-yl)methyl)piperazin-1-yl)-2-(2,6-dioxopiperidin-3-yl)isoindoline-1,3-dione] | ≥ 100 nM | > 100 nM | 
CNC(=O)COc1cc2cc(Nc3nc(N4CCC(CN5CCN(c6ccc7c(c6)CN(C6CCC(=O)NC6=O)C7=O)CC5)CC4)ncc3Cl)ccc2n(C)c1=O (stereo not drawn) [compound 151, 2-((6-((5-chloro-2-(4-((4-(2-(2,6-dioxopiperidin-3-yl)-1-oxoisoindolin-5-yl)piperazin-1-yl)methyl)piperidin-1-yl)pyrimidin-4-yl)amino)-1-methyl-2-oxo-1,2-dihydroquinolin-3-yl)oxy)-N-methylacetamide] | < 10 nM | 10 to 50 nM | 50 to 70%
CC(=O)COc1cc2cc(Nc3nc(N4CCC(CN5CCN(c6ccc7c(c6)C(=O)N(C6CCC(=O)NC6=O)C7=O)CC5)CC4)ncc3Cl)ccc2n(C)c1=O (stereo not drawn) [compound 152, 5-(4-((1-(5-chloro-4-((1-methyl-2-oxo-3-(2-oxopropoxy)-1,2-dihydroquinolin-6-yl)amino)pyrimidin-2-yl)piperidin-4-yl)methyl)piperazin-1-yl)-2-(2,6-dioxopiperidin-3-yl)isoindoline-1,3-dione] | 50 to 100 nM | 10 to 50 nM | 50 to 70%
CC(=O)COc1cc2cc(Nc3nc(N4CCC(C(=O)N5CCN(c6ccc7c(c6)C(=O)N(C6CCC(=O)NC6=O)C7=O)CC5)CC4)ncc3Cl)ccc2n(C)c1=O (stereo not drawn) [compound 153, 5-(4-(1-(5-chloro-4-((1-methyl-2-oxo-3-(2-oxopropoxy)-1,2-dihydroquinolin-6-yl)amino)pyrimidin-2-yl)piperidine-4-carbonyl)piperazin-1-yl)-2-(2,6-dioxopiperidin-3-yl)isoindoline-1,3-dione] | 50 to 100 nM | < 10 nM | ≥ 70%
CC(=O)COc1cc2cc(Nc3nc(N4CCC(CN5CCC(Oc6ccc7c(c6)C(=O)N(C6CCC(=O)NC6=O)C7=O)CC5)C4)ncc3Cl)ccc2n(C)c1=O (stereo not drawn) [compound 154, 5-((1-((1-(5-chloro-4-((1-methyl-2-oxo-3-(2-oxopropoxy)-1,2-dihydroquinolin-6-yl)amino)pyrimidin-2-yl)pyrrolidin-3-yl)methyl)piperidin-4-yl)oxy)-2-(2,6-dioxopiperidin-3-yl)isoindoline-1,3-dione] | 50 to 100 nM | 10 to 50 nM | < 50%
CNC(=O)CCc1cc2cc(Nc3nc(N4CCC(CN5CCN(c6ccc7c(c6)C(=O)N(C6CCC(=O)NC6=O)C7=O)CC5)CC4)ncc3Cl)ccc2n(C)c1=O (stereo not drawn) [compound 155, 3-(6-((5-chloro-2-(4-((4-(2-(2,6-dioxopiperidin-3-yl)-1,3-dioxoisoindolin-5-yl)piperazin-1-yl)methyl)piperidin-1-yl)pyrimidin-4-yl)amino)-1-methyl-2-oxo-1,2-dihydroquinolin-3-yl)-N-methylpropanamide] | ≥ 100 nM | > 100 nM | 
Cn1c(=O)cc(NC(C)(C)c2ncccn2)c2cc(Nc3nc(N4CCC(CN5CCN(c6ccc7c(c6)C(=O)N(C6CCC(=O)NC6=O)C7=O)CC5)CC4)ncc3Cl)ccc21 (stereo not drawn) [compound 156, 5-(4-((1-(5-chloro-4-((1-methyl-2-oxo-4-((2-(pyrimidin-2-yl)propan-2-yl)amino)-1,2-dihydroquinolin-6-yl)amino)pyrimidin-2-yl)piperidin-4-yl)methyl)piperazin-1-yl)-2-(2,6-dioxopiperidin-3-yl)isoindoline-1,3-dione] | ≥ 100 nM | > 100 nM | < 50%
CC(=O)COc1cc2cc(Nc3nc(N4CCC(N5CCC(N(C)CCOc6ccc7c(c6)CN(C6CCC(=O)NC6=O)C7=O)C5)CC4)ncc3Cl)ccc2n(C)c1=O (stereo not drawn) [compound 157, 3-(5-(2-((1-(1-(5-chloro-4-((1-methyl-2-oxo-3-(2-oxopropoxy)-1,2-dihydroquinolin-6-yl)amino)pyrimidin-2-yl)piperidin-4-yl)pyrrolidin-3-yl) (methyl)amino)ethoxy)-1-oxoisoindolin-2-yl)piperidine-2,6-dione] | < 10 nM | 10 to 50 nM | 50 to 70%
CNC(=O)COc1cc2cc(Nc3nc(N4CCC(OCCCCOc5cc(-c6scnc6C)ccc5CNC(=O)[C@@H]5C[C@@H](O)CN5C(=O)C(c5cc(C)no5)C(C)C)CC4)ncc3Cl)ccc2n(C)c1=O (stereo partly drawn) [compound 159, (2S,4R)-N-(2-(4-((1-(5-chloro-4-((1-methyl-3-(2-(methylamino)-2-oxoethoxy)-2-oxo-1,2-dihydroquinolin-6-yl)amino)pyrimidin-2-yl)piperidin-4-yl)oxy)butoxy)-4-(4-methylthiazol-5-yl)benzyl)-4-hydroxy-1-(3-methyl-2-(3-methylisoxazol-5-yl)butanoyl)pyrrolidine-2-carboxamide] | 10 to 50 nM | > 100 nM | < 50%
